# Assays:
# Assay type in all cases: in vivo
# Echinochloa crus-galli [1] = test: Post-emergence herbicidal effect; conditions: 320 g/ha, assessed visually after about 3 weeks vs untreated controls
# Outline: (§1)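 Greenhouse weeds grown in sandy loam were sprayed at the one-leaf stage, 2–3 weeks after sowing, with WP or EC formulations in 600–800 L/ha water plus 0.2% wetting agent. Damage was scored visually after about 3 weeks as percent activity relative to untreated controls, where 100% means the plants died.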
# Veronica persica [2] = test: Post-emergence herbicidal effect; conditions: assessed visually after about 3 weeks vs untreated controls
# Outline: as §1
# Abutilon theophrasti [3] = test: Post-emergence herbicidal effect; conditions: assessed visually after about 3 weeks vs untreated controls
# Outline: as §1
# Amaranthus retroflexus [4] = test: Post-emergence herbicidal effect; conditions: assessed visually after about 3 weeks vs untreated controls
# Outline: as §1
# Viola tricolor [5] = test: Post-emergence herbicidal effect; conditions: assessed visually after about 3 weeks vs untreated controls
# Outline: as §1
# Stellaria media [6] = test: Post-emergence herbicidal effect; conditions: assessed visually after about 3 weeks vs untreated controls
# Outline: as §1
# Echinochloa crus-galli [7] = test: Pre-emergence herbicidal effect; conditions: scored visually after 3 weeks
# Outline: (§2)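 Using soil-surface application before emergence, the compound was delivered in a water volume equating to 600 to 800 L/ha. Plants grew in a greenhouse for 3 weeks; activity was then rated visually in percent against untreated plants, with 100% for plants killed.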
# Alopecurus myosuroides = test: Pre-emergence herbicidal effect; conditions: Dosage 320 g/ha, scored visually after 3 weeks
# Outline: as §2
# Matricaria inodora [8] = test: Pre-emergence herbicidal effect; conditions: scored visually after 3 weeks
# Outline: as §2
# Veronica persica [9] = test: Pre-emergence herbicidal effect; conditions: scored visually after 3 weeks
# Outline: as §2
# Abutilon theophrasti [10] = test: Pre-emergence herbicidal effect; conditions: scored visually after 3 weeks
# Outline: as §2
# Polygonum convolvulus = test: Pre-emergence herbicidal effect; conditions: scored visually after 3 weeks
# Outline: as §2
# Amaranthus retroflexus [11] = test: Pre-emergence herbicidal effect; conditions: scored visually after 3 weeks
# Outline: as §2
# Viola tricolor [12] = test: Pre-emergence herbicidal effect; conditions: scored visually after 3 weeks
# Outline: as §2
# Setaria viridis [13] = test: Pre-emergence herbicidal effect; conditions: scored visually after 3 weeks
# Outline: as §2
# Stellaria media [14] = test: Pre-emergence herbicidal effect; conditions: scored visually after 3 weeks
# Outline: as §2
# Ipomoea purpurea = test: Post-emergence herbicidal effect; conditions: 320 g/ha, assessed visually after about 3 weeks vs untreated controls
# Outline: as §1
# Matricaria inodora [15] = test: Post-emergence herbicidal effect; conditions: assessed visually after about 3 weeks vs untreated controls
# Outline: as §1
# Setaria viridis [16] = test: Post-emergence herbicidal effect; conditions: 320 g/ha, assessed visually after about 3 weeks vs untreated controls
# Outline: as §1
# Lolium multiflorum = test: Pre-emergence herbicidal effect; conditions: Dosage 320 g/ha, scored visually after 3 weeks
# Outline: as §2
Structure (SMILES),post-emergence efficacy VERPE (Veronica persica [2]; 320 g/ha),post-emergence efficacy ABUTH (Abutilon theophrasti [3]; 320 g/ha),post-emergence efficacy AMARE (Amaranthus retroflexus [4]; 320 g/ha),post-emergence efficacy VIOTR (Viola tricolor [5]; 320 g/ha),post-emergence efficacy STEME (Stellaria media [6]; 320 g/ha),ECHCG pre-emergence efficacy (herbicidal activity) (Echinochloa crus-galli [7]; Dosage 80 g/ha),ECHCG pre-emergence efficacy (herbicidal activity) (Echinochloa crus-galli [7]; Dosage 320 g/ha),MATIN pre-emergence efficacy (herbicidal activity) (Matricaria inodora [8]; Dosage 80 g/ha),MATIN pre-emergence efficacy (herbicidal activity) (Matricaria inodora [8]; Dosage 320 g/ha),VERPE pre-emergence efficacy (herbicidal activity) (Veronica persica [9]; Dosage 80 g/ha),VERPE pre-emergence efficacy (herbicidal activity) (Veronica persica [9]; Dosage 320 g/ha),POLCO pre-emergence efficacy (herbicidal activity) (Polygonum convolvulus; Dosage 80 g/ha),POLCO pre-emergence efficacy (herbicidal activity) (Polygonum convolvulus; Dosage 320 g/ha),AMARE pre-emergence efficacy (herbicidal activity) (Amaranthus retroflexus [11]; Dosage 320 g/ha),VIOTR pre-emergence efficacy (herbicidal activity) (Viola tricolor [12]; Dosage 80 g/ha),VIOTR pre-emergence efficacy (herbicidal activity) (Viola tricolor [12]; Dosage 320 g/ha),SETVI pre-emergence efficacy (herbicidal activity) (Setaria viridis [13]; Dosage 80 g/ha),SETVI pre-emergence efficacy (herbicidal activity) (Setaria viridis [13]; Dosage 320 g/ha),STEME pre-emergence efficacy (herbicidal activity) (Stellaria media [14]; Dosage 80 g/ha),STEME pre-emergence efficacy (herbicidal activity) (Stellaria media [14]; Dosage 320 g/ha),also measured
Cc1cc2c(s1)C(Nc1ncc3c(n1)CCCC3=O)CCC2 (racemic) [compound 8],90%,80%,90%,90%,90%,90%,100%,100%,100%,100%,100%,100%,100%,100%,100%,100%,90%,100%,80%,100%,post-emergence efficacy ECHCG (Echinochloa crus-galli [1]): 100%; post-emergence efficacy STEME (Stellaria media [6]; 80 g/ha): 80%; ALOMY pre-emergence efficacy (herbicidal activity) (Alopecurus myosuroides): 80%; ABUTH pre-emergence efficacy (herbicidal activity) (Abutilon theophrasti [10]; Dosage 320 g/ha): 100%; AMARE pre-emergence efficacy (herbicidal activity) (Amaranthus retroflexus [11]; Dosage 80 g/ha): 100%
Cc1cc2c(s1)CCCC2Nc1nc(N)c(S(C)(=O)=O)c(Cl)n1 (racemic) [compound 16],80%,90%,90%,90%,90%,100%,100%,100%,100%,100%,100%,20%,40%,100%,100%,100%,20%,100%,100%,100%,post-emergence efficacy ECHCG (Echinochloa crus-galli [1]): 100%; ABUTH pre-emergence efficacy (herbicidal activity) (Abutilon theophrasti [10]; Dosage 80 g/ha): 40%; ABUTH pre-emergence efficacy (herbicidal activity) (Abutilon theophrasti [10]; Dosage 320 g/ha): 40%; AMARE pre-emergence efficacy (herbicidal activity) (Amaranthus retroflexus [11]; Dosage 80 g/ha): 90%
Cc1cc2c(s1)CCCC2Nc1nc(N)c([S+](C)[O-])c(Cl)n1 (racemic) [compound 39],,,,80%,,80%,100%,100%,100%,,100%,80%,90%,100%,100%,100%,100%,100%,100%,100%,post-emergence efficacy PHBPU (Ipomoea purpurea): 80%; post-emergence efficacy VIOTR (Viola tricolor [5]; 80 g/ha): 80%; ABUTH pre-emergence efficacy (herbicidal activity) (Abutilon theophrasti [10]; Dosage 320 g/ha): 80%
Cc1cc2c(s1)CCCC2Nc1ncc(C(N)=O)c(N)n1 (racemic) [compound 267],80%,80%,80%,90%,100%,,90%,,,100%,100%,,,100%,90%,100%,80%,80%,100%,100%,post-emergence efficacy MATIN (Matricaria inodora [15]; 80 g/ha): 80%; post-emergence efficacy MATIN (Matricaria inodora [15]; 320 g/ha): 80%; post-emergence efficacy VERPE (Veronica persica [2]; 80 g/ha): 80%; post-emergence efficacy ABUTH (Abutilon theophrasti [3]; 80 g/ha): 80%; post-emergence efficacy PHBPU (Ipomoea purpurea): 80%; post-emergence efficacy AMARE (Amaranthus retroflexus [4]; 80 g/ha): 80%; post-emergence efficacy VIOTR (Viola tricolor [5]; 80 g/ha): 80%; post-emergence efficacy SETVI (Setaria viridis [16]): 60%; post-emergence efficacy STEME (Stellaria media [6]; 80 g/ha): 80%; ALOMY pre-emergence efficacy (herbicidal activity) (Alopecurus myosuroides): 80%; AMARE pre-emergence efficacy (herbicidal activity) (Amaranthus retroflexus [11]; Dosage 80 g/ha): 100%
Cc1cc2c(s1)CCCC2Nc1ncc(-c2cncc(C(F)(F)F)c2)c(N)n1 (racemic) [compound 290],100%,60%,80%,90%,,,100%,90%,100%,100%,100%,50%,80%,100%,100%,100%,60%,100%,100%,100%,post-emergence efficacy MATIN (Matricaria inodora [15]; 80 g/ha): 80%; post-emergence efficacy MATIN (Matricaria inodora [15]; 320 g/ha): 90%; post-emergence efficacy ABUTH (Abutilon theophrasti [3]; 80 g/ha): 60%; post-emergence efficacy AMARE (Amaranthus retroflexus [4]; 80 g/ha): 80%; post-emergence efficacy VIOTR (Viola tricolor [5]; 80 g/ha): 60%; post-emergence efficacy SETVI (Setaria viridis [16]): 60%; ALOMY pre-emergence efficacy (herbicidal activity) (Alopecurus myosuroides): 80%; LOLMU pre-emergence efficacy (herbicidal activity) (Lolium multiflorum): 100%
